Our source for the IC50 values is patent publication US20120245137A1 (Zalicus Pharmaceuticals Ltd., priority 2009, published 2012).

Each structure is given as a SMILES string.

In assay [1] the target is human α1G T-type channels (Homo sapiens, UniProt O43497). As to the kind of experiment: T-type calcium channel block, whole cell patch clamp, α1G. In kind it is cell-based. As to conditions: HEK cells stably expressing human α1G; mainly non-inactivated protocol; values above 10,000 nM represented as 10000. The gist of the method:
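Read-out: current block in whole-cell patch clamp of HEK 293 cells stably expressing human α1G or α1H subunits. Compounds were perfused locally in external solution (0.1-0.01% DMSO) under resting and inactivating voltage protocols.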
A general note: In patch-clamp work, channel activity is measured electrically.

Assay [2] concerns the target human α1H T-type channels (Homo sapiens, UniProt O95180). Kind of assay: T-type calcium channel block, whole cell patch clamp, α1H. The format is cell-based. To be noted: HEK cells stably expressing human α1H; mainly non-inactivated protocol; values above 10,000 nM represented as 10000. The method, then: T-type calcium channel blocking activity was assayed in human embryonic kidneycells, HEK 293 (Invitrogen), stably transfected with the T-type calcium channel subunits. Briefly, cells were cultured in Dulbecco's modified eagle medium (DMEM) supplemented with 10% fetal bovine serum, 200 U/ml penicillin, and 0.2 mg/mL streptomycin at 37° C. with 5% CO2. At 85% confluency, cells were split with 0.25% trypsin/1 mM EDTA and plated at 10% confluency on glass coverslips. At 12 hours, the medium was replaced, and the cells stably transfected using a standard calcium phosphate protocol and the appropriate calcium channel cDNA's. Fresh DMEM was supplied, and the cells transferred to 28° C./5% CO2.
Standard patch-clamp techniques were employed to identify blockers of T-type currents. Briefly, previously described HEK cell lines stably expressing human α1G, α1H, and α1I T-type channels were used for all the recordings (passage #: 4-20, 37° C., 5% CO2). Whole cell patch clamp experiments were performed using an Axopatch 200B amplifier (Axon Instruments, Burlingame, Calif.) linked to a personal computer equipped with pCLAMP software. Data were analyzed using Clampfit (Axon Instruments) and SigmaPlot 4.0 (Jandel Scientific). To obtain T-type currents, plastic dishes containing semi-confluent cells were positioned on the stage of a ZEISS AXIOVERT S100 microscope after replacing the culture medium with external solution (Table 2). Whole-cell patches were obtained using pipettes (borosilicate glass with filament, O.D.: 1.5 mm, I.D.: 0.86 mm, 10 cm length), fabricated on a SUTTER P-97 puller with resistance values of ˜5 MΩ (Table 3).
T-type currents were reliably obtained by using two voltage protocols: • “non-inactivating,” and • “inactivation.”
Test compounds were dissolved in external solution, 0.1-0.01% DMSO. After ˜10 minutes rest, they were applied by gravity close to the cell using a WPI microfil tubing. The “non-inactivated” pre-pulse was used to examine the resting block of a compound. The “inactivated” protocol was employed to study voltage-dependent block.

Sequence of human α1H T-type channels (O95180 whole entry): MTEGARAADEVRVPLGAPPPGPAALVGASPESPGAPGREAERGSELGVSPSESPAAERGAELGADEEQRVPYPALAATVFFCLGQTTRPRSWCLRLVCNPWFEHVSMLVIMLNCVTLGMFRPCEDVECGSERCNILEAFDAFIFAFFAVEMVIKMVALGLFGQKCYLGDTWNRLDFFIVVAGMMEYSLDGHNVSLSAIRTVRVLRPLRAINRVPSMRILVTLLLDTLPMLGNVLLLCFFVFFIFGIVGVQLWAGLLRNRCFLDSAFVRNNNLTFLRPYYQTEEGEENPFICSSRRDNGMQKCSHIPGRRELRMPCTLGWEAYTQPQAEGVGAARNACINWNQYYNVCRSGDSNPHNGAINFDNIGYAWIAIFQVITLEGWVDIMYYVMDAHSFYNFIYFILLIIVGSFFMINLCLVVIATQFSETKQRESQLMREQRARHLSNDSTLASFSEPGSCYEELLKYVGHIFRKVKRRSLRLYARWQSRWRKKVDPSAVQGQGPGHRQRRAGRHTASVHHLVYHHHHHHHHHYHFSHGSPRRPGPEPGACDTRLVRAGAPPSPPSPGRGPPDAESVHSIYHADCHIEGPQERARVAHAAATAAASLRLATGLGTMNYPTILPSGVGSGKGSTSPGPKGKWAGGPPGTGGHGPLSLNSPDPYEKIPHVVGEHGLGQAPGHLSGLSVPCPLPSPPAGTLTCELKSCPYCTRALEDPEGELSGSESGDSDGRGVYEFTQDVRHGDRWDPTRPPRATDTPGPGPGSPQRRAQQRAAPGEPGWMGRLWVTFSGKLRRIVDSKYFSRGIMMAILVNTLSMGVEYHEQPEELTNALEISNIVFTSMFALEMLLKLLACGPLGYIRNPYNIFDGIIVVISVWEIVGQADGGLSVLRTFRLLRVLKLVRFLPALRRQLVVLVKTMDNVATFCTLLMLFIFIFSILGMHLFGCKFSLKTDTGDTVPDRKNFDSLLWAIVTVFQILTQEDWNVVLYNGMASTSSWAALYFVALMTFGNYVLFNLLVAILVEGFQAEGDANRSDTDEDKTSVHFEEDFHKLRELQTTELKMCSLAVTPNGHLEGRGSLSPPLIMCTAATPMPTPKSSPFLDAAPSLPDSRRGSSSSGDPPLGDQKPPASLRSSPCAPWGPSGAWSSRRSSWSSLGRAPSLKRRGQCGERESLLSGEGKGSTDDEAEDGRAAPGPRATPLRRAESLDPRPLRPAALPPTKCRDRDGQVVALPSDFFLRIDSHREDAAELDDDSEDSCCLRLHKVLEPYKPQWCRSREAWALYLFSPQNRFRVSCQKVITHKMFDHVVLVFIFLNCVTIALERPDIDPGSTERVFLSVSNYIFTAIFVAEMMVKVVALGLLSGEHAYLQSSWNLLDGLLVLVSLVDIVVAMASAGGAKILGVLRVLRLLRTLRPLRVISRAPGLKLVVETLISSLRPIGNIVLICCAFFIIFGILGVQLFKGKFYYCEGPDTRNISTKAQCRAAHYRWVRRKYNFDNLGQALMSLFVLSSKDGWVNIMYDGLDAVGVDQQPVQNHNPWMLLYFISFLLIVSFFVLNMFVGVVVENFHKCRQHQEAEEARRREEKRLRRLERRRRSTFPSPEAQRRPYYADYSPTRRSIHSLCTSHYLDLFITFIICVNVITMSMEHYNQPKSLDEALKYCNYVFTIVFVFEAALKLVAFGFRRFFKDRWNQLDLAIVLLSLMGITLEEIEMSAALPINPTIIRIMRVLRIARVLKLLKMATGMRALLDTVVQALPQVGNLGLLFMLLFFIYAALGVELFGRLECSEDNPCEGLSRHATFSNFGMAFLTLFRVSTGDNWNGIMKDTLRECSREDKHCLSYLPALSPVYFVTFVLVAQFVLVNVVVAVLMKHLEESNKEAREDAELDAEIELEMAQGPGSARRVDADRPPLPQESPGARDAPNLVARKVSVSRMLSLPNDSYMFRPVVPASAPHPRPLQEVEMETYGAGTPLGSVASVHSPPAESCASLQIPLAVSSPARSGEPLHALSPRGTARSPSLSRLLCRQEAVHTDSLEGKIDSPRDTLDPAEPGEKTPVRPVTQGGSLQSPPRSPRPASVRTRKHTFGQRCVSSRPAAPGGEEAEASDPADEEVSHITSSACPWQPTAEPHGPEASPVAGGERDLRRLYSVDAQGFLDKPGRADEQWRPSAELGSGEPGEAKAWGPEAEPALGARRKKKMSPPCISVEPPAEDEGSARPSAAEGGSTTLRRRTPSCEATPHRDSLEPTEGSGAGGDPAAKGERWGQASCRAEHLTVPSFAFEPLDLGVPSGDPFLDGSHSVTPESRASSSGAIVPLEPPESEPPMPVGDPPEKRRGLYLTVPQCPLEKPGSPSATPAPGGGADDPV
Sequence of human α1G T-type channels (O43497 whole entry, the tested form may be a part): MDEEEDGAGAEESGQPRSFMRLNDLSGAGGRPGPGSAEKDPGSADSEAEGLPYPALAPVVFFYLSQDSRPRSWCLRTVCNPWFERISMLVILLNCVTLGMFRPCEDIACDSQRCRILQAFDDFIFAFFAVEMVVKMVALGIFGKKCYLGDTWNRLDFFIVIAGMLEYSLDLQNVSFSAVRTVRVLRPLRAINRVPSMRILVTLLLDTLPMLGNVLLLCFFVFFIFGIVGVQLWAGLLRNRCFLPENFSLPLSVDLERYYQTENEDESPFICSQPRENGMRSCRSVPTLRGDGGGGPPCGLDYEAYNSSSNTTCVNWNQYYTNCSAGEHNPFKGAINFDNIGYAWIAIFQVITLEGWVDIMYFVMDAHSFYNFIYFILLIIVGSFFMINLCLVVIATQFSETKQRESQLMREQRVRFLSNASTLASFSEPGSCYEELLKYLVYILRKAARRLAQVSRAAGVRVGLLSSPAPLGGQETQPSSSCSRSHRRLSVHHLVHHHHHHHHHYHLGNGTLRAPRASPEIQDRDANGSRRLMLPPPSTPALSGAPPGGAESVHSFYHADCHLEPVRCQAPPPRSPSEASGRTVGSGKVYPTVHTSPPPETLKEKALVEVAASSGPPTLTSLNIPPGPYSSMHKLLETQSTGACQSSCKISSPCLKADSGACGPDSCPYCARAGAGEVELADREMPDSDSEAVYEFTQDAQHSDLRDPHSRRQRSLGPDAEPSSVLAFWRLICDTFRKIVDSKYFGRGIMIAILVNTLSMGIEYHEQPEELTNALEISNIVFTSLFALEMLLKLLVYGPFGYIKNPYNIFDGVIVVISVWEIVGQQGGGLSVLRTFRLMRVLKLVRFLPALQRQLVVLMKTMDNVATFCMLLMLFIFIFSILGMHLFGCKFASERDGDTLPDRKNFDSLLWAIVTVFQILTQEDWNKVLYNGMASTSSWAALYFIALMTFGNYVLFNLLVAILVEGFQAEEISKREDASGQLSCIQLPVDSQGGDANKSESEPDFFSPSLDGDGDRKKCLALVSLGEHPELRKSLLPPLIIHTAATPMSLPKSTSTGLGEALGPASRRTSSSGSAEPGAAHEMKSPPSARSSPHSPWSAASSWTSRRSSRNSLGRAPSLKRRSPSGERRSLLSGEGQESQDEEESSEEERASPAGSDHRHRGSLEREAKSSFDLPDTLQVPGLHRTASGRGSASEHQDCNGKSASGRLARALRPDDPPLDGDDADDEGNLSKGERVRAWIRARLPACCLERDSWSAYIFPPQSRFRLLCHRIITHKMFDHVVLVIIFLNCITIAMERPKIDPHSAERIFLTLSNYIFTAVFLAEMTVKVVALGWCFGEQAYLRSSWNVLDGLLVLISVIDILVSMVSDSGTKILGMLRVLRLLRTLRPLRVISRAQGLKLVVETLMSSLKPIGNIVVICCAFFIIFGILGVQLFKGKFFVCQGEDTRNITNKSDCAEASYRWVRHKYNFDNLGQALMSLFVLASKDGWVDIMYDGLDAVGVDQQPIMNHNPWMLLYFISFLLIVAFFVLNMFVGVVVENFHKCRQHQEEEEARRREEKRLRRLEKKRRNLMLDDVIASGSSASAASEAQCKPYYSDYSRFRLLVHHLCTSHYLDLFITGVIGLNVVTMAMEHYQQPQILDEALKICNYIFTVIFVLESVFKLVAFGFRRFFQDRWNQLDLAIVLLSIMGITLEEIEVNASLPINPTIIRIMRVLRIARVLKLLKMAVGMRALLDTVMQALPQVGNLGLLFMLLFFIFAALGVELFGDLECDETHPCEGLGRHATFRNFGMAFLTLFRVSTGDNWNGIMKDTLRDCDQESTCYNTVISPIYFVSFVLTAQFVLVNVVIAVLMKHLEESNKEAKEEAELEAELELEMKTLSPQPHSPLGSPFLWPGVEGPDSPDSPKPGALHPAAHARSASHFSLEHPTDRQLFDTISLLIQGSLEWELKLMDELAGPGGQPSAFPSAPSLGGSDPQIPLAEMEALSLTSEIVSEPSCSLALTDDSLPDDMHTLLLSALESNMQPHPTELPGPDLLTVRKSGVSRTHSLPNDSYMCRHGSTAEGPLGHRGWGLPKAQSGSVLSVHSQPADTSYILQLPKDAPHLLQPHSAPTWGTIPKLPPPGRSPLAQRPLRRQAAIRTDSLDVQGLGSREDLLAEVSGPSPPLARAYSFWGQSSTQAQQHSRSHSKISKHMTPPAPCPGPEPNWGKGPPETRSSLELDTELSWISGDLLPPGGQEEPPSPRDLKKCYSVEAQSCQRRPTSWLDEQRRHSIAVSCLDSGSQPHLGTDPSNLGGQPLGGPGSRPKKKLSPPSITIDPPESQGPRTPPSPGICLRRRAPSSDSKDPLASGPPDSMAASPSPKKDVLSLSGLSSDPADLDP

What is called IC50 is the concentration needed to halve the response being measured. As to `CS(=O)(=O)c1nc(C(F)(F)F)ccc1C(=O)N[C@H]1CC[C@@](F)(S(=O)(=O)c2cccc(OC(F)(F)F)c2)CC1` [Compound 258, N-((1S,4S)-4-fluoro-4-(3-(trifluoromethoxy)phenylsulfonyl)cyclohexyl)-2-(methylsulfonyl)-6-(trifluoromethyl)nicotinamide], the IC50 in assay [1] is 7340 nM; in assay [2], > 10000 nM.

In the case of `CC(C)(C(=O)Nc1nc2ccc(Cl)cc2s1)S(=O)(=O)c1cccc(C(F)(F)F)c1` [Compound 449, N-(6-chlorobenzo[d]thiazol-2-yl)-2-methyl-2-(3-(trifluoromethyl)phenylsulfonyl)propanamide], the IC50 in assay [1] was found to be 450 nM; in assay [2], 550 nM.

Take `CC(C)(C(=O)NCCc1ccc(Cl)c(Cl)c1)S(=O)(=O)c1cccc(C(F)(F)F)c1` [Compound 451, N-(3,4-dichlorophenethyl)-2-methyl-2-(3-(trifluoromethyl)phenylsulfonyl)propanamide]: the 50% inhibitory concentration (IC50) in assay [1] was determined as 260 nM; in assay [2], 2410 nM.

`CN(CCc1ccc(F)cc1)C(=O)C(C)(C)S(=O)(=O)c1cccc(C(F)(F)F)c1` [Compound 452, N-(4-fluorophenethyl)-N,2-dimethyl-2-(3-(trifluoromethyl)phenylsulfonyl)propanamide]: the figures for the 50% inhibitory concentration (IC50) in assay [1] and in assay [2] were 570 nM and 9810 nM, respectively.

Take `CN(CCc1ccc(Cl)c(Cl)c1)C(=O)C(C)(C)S(=O)(=O)c1cccc(C(F)(F)F)c1` [Compound 453, N-(3,4-dichlorophenethyl)-N,2-dimethyl-2-(3-(trifluoromethyl)phenylsulfonyl)propanamide]: the results for the half-maximal inhibitory concentration (IC50) in assay [1] and in assay [2] were 690 nM and 3930 nM, respectively.

For the compound `CN(Cc1ccc(F)c(C(F)(F)F)c1)C(=O)C(C)(C)S(=O)(=O)c1cccc(C(F)(F)F)c1` [Compound 454, N-(4-fluoro-3-(trifluoromethyl)benzyl)-N,2-dimethyl-2-(3-(trifluoromethyl)phenylsulfonyl)propanamide], the 50% inhibitory concentration (IC50) in assay [1] came to 610 nM; in assay [2], 3480 nM.

On to `CC(C)(CNC(=O)c1cc(F)cc(Cl)c1)S(=O)(=O)c1cccc(C(F)(F)F)c1` [Compound 455, 3-chloro-5-fluoro-N-(2-methyl-2-(3-(trifluoromethyl)phenylsulfonyl)propyl)benzamide], for which the IC50 in assay [1] is 400 nM; in assay [2], 2500 nM.

As for `CC(C)(CNC(=O)c1ccc(F)c(C(F)(F)F)c1)S(=O)(=O)c1cccc(C(F)(F)F)c1` [Compound 456, 4-fluoro-N-(2-methyl-2-(3-(trifluoromethyl)phenylsulfonyl)propyl)-3-(trifluoromethyl)benzamide], the half-inhibitory concentration (IC50) in assay [1] was 710 nM; in assay [2] it was 910 nM.

Regarding `CC(C)(CNC(=O)c1nc2cc(C(F)(F)F)ccc2[nH]1)S(=O)(=O)c1cccc(C(F)(F)F)c1` [Compound 457, N-(2-methyl-2-(3-(trifluoromethyl)phenylsulfonyl)propyl)-5-(trifluoromethyl)-1H-benzo[d]imidazole-2-carboxamide], the values for the IC50 in assay [1] and in assay [2] were 560 nM and 1200 nM, respectively.

For the compound `CC(C)(C(=O)Nc1nc2cc(C(F)(F)F)ccc2[nH]1)S(=O)(=O)c1cccc(C(F)(F)F)c1` [Compound 458, 2-methyl-N-(5-(trifluoromethyl)-1H-benzo[d]imidazol-2-yl)-2-(3-(trifluoromethyl)phenylsulfonyl)propanamide], the IC50 turned out to be 900 nM in assay [1] and 1920 nM in assay [2].

With `CC1(NC(=O)CNCC(C)(C)S(=O)(=O)c2cccc(C(F)(F)F)c2)CCC1` [Compound 459, 2-(2-methyl-2-(3-(trifluoromethyl)phenylsulfonyl)propylamino)-N-(l-methylcyclobutyl)acetamide], the IC50 in assay [1] was 820 nM; in assay [2] it was > 10000 nM.

Regarding `CC(C)(CCS(=O)(=O)c1cccc(C(F)(F)F)c1)S(=O)(=O)c1cccc(C(F)(F)F)c1` [Compound 460], the 50% inhibitory concentration (IC50) was 100 nM in assay [1] and > 10000 nM in assay [2].

Regarding `CC(C)(CCS(=O)(=O)c1cc(Cl)cc(Cl)c1)S(=O)(=O)c1cccc(C(F)(F)F)c1` [Compound 461, 1,3-dichloro-5-(3-methyl-3-(3-(trifluoromethyl)phenylsulfonyl)butylsulfonyl)benzene], the 50% inhibitory concentration (IC50) in assay [1] is 190 nM; in assay [2], > 10000 nM.

Consider `CC(C)(CCS(=O)(=O)c1ccc(Cl)cc1)S(=O)(=O)c1cccc(C(F)(F)F)c1` [Compound 462, 1-(4-(4-chlorophenylsulfonyl)-2-methylbutan-2-ylsulfonyl)-3-(trifluoromethyl)benzene], for which the half-inhibitory concentration (IC50) in assay [1] was 560 nM; in assay [2] it was > 10000 nM.

With `CC(C)(CCS(=O)(=O)c1cccc(OC(F)(F)F)c1)S(=O)(=O)c1cccc(C(F)(F)F)c1` [Compound 463, 1-(3-methyl-3-(3-(trifluoromethyl)phenylsulfonyl)butylsulfonyl)-3-(trifluoromethoxy)benzene], the IC50 was 350 nM in assay [1] and > 10000 nM in assay [2].

With `COc1cc(F)cc(C(=O)NCCC(C)(C)S(=O)(=O)c2cccc(C(F)(F)F)c2)c1` [Compound 464, 3-fluoro-5-methoxy-N-(3-methyl-3-(3-(trifluoromethyl)phenylsulfonyl)butyl) benzamide], the figures for the IC50 in assay [1] and in assay [2] were 60 nM and 2140 nM, respectively.

On to `CC(C)(CCNC(=O)c1cc(F)cc(Cl)c1)S(=O)(=O)c1cccc(C(F)(F)F)c1` [Compound 465, 3-chloro-5-tluoro-N-(3-methyl-3-(3-(trifluoromethyl)phenylsulfonyl)butyl) benzamide], for which the IC50 worked out at 50 nM in assay [1] and 960 nM in assay [2].

For `Cn1nc(C(F)(F)F)cc1C(=O)NCCC(C)(C)S(=O)(=O)c1cccc(C(F)(F)F)c1` [Compound 467, 1-methyl-N-(3-methyl-3-(3-(trifluoromethyl)phenylsulfonyl)butyl)-3-(trifluoromethyl)-1H-pyrazole-5-carboxamide], the figures for the IC50 in assay [1] and in assay [2] were 170 nM and 1170 nM, respectively.

Turning to `CC(C)(CCNC(=O)c1ccc(F)cc1)S(=O)(=O)c1cccc(C(F)(F)F)c1` [Compound 468, 4-fluoro-N-(3-methyl-3-(3-(trifluoromethyl)phenylsulfonyl)butyl) benzamide], the IC50 in assay [1] is 350 nM; in assay [2] it was 4860 nM.

Regarding `CC(C)(CCNC(=O)c1ccc(C(F)(F)F)cc1S(C)(=O)=O)S(=O)(=O)c1cccc(C(F)(F)F)c1` [Compound 469, N-(3-methyl-3-(3-(trifluoromethyl)phenylsulfonyl)butyl)-2-(methylsulfonyl)-4-(trifluoromethyl)benzamide], the values for the IC50 in assay [1] and in assay [2] were 430 nM and 5040 nM, respectively.

Take `CC(C)(CCNC(=O)c1ccc(C(F)(F)F)cn1)S(=O)(=O)c1cccc(C(F)(F)F)c1` [Compound 470, N-(3-methyl-3-(3-(trifluoromethyl)phenylsulfonyl)butyl)-5-(trifluoromethyl)picolinamide]: the values for the half-inhibitory concentration (IC50) in assay [1] and in assay [2] were 130 nM and 5840 nM, respectively.

With `CC(C)(C)NC(=O)CNCCC(C)(C)S(=O)(=O)c1cccc(C(F)(F)F)c1` [Compound 471, N-tert-butyl-2-(3-methyl-3-(3-(trifluoromethyl)phenylsulfonyl)butylamino) acetamide], the figures for the IC50 in assay [1] and in assay [2] were 610 nM and > 10000 nM, respectively.

As to `CC(C)(CCNCC(=O)NC1CCCCC1)S(=O)(=O)c1cccc(C(F)(F)F)c1` [Compound 472, N-cyclohexyl-2-(3-methyl-3-(3-(trifluoromethyl)phenylsulfonyl)butylamino) acetamide], the IC50 in assay [1] was found to be 620 nM; in assay [2] it was 3470 nM.

Consider `CN(C(=O)CNCCC(C)(C)S(=O)(=O)c1cccc(C(F)(F)F)c1)C(C)(C)C` [Compound 473, N-tert-butyl-N-methyl-2-(3-methyl-3-(3-(trifluoromethyl)phenylsulfonyl)butylamino) acetamide], for which the IC50 came to 680 nM in assay [1] and 9280 nM in assay [2].

Regarding `CC(C)(CNC(=O)c1ccc(C(F)(F)F)cc1S(C)(=O)=O)S(=O)(=O)c1cccc(C(F)(F)F)c1` [Compound 474, N-(2-methyl-2-(3-(trifluoromethyl)phenylsulfonyl)propyl)-2-(methylsulfonyl)-4-(tritluoromethyl)benzamide], the IC50 in assay [1] is 560 nM; in assay [2], > 10000 nM.

For `CC(C)(CNC(=O)c1cc(C(F)(F)F)ccn1)S(=O)(=O)c1cccc(C(F)(F)F)c1` [Compound 475, N-(2-methyl-2-(3-(trifluoromethyl)phenylsulfonyl)propyl)-4-(trifluoromethyl)picolinamide], the results for the IC50 in assay [1] and in assay [2] were 480 nM and 6970 nM, respectively.
